According to publication PMC3221505, “Simple, Rapid and Validated LC Determination of Lopinavir in Rat Plasma and its Application in Pharmacokinetic Studies” (Scientia Pharmaceutica, 2011):

Experiments:
[1] = Pharmacokinetic study after intravenous bolus administration of LPV in rats; format: in vivo; details: male Wistar rats, 5 mg kg^−1, n = 6, plasma
Protocol: Formulation was administered through tail vein in male Wistar rats (n = 6), weighing 180 to 220 g, at a dose of 5 mg kg^−1 [35]. Blood samples were drawn from retro-orbital plexus of Wistar rats at 0.083, 0.167, 0.25, 0.5, 1, 2, 3, 4, 6, 8, 12 and 24 h post dose in microfuge tube pretreated with sodium citrate solution (3.8% w/v). A baseline blank plasma sample was drawn from each animal before drug administration. All samples were processed according to the procedure described earlier and analyzed using the validated HPLC method.

[2] = Freeze-thaw stability of LPV in rat plasma; format: in vitro ADME, Wistar rat; details: rat plasma QC samples, end of three freeze-thaw cycles, frozen at −20 °C
Protocol: Total of four sets were prepared in triplicates and one set of the prepared concentrations was analyzed on the day of preparation (no freeze-thaw cycle) and the remaining three sets were frozen at −20 °C for 24 h. Frozen samples were thawed by keeping the sealed tubes at room temperature for at least 1 h. One set in triplicate was analyzed and the remaining two sets were kept at −20 °C for freezing and were analyzed after two and three freeze-thaw cycles.

[3] = Post extraction stability of processed samples of LPV in rat plasma; format: physicochemical, Wistar rat; details: processed rat plasma QC samples kept in auto sampler rack, 24 h
Protocol: Processed samples were kept in the sample rack of auto sampler and samples were analyzed in triplicates every 6 h for 24 h period on the day of preparation. The percentage deviation from the mean concentrations observed at zero time was calculated.

- area under the first-moment curve (AUMC) [1]: 4403.07 ± 171.33 h^2 ng mL^−1
- AUC ([1]; rat, read-out: area under the curve (AUC)): 3850 ± 264 ng·h/mL
- C0 ([1]; rat, read-out: concentration at time zero (Co)): 3170 ± 290 ng/mL
- half-life ([1]; rat, read-out: elimination half-life (t½) (converted)): 49.2 ± 1.8 min
- MRT ([1]; rat, read-out: mean retention time (MRT)): 69 ± 3 min
- clearance ([1]; rat, read-out: total plasma clearance (CLs) (converted)): 22.4 mL/min/kg
- Vd ([1]; rat, read-out: volume of distribution (Vss)): 1.59 ± 0.146 L/kg
- deviation from the zero time concentration (freeze-thaw stability) [2]: less than 8.0%
- maximum deviation from the zero time concentration (post extraction stability) [3]: less than 2.0%
SMILES: Cc1cccc(C)c1OCC(=O)N[C@@H](Cc1ccccc1)[C@@H](O)C[C@H](Cc1ccccc1)NC(=O)[C@H](C(C)C)N1CCCNC1=O [LPV, (2S)-N-[(1S,3S,4S)-1-benzyl-4-{[(2,6-dimethyl-phenoxy)acetyl]amino}-3-hydroxy-5-phenylpentyl]-3-methyl-2-(2-oxotetrahydropyrimidin-1(2H)-yl)butanamide]
